Measured values: EP0289204B1, “Lithium salt-containing pharmaceutical compositions” (EFAMOL HOLDINGS PLC, priority 1987, dated 1988)
Like-named read-outs stand apart in the source and are kept apart here.

What was measured:
[1] = Procedure: Each 50 ml water contained 11.4 mg lithium. Each aqueous solution was then shaken with 250 ml of chloroform/methanol (2/l by volume). The chloroform/methanol fraction was then separated off and evaporated to dryness under a stream of nitrogen. The mass of dry extract from the chloroform/methanol phase was weighed and its lithium content determined by flame photometry. The lithium content of the aqueous phase was also measured by flame photometry. • (B) 1 g of pure gamma-linolenic acid was dissolved in 10 ml of chloroform/methanol (2/l by volume). The resulting solution was then thoroughly shaken with 50 ml distilled water. The chloroform/methanol phase was then separated off and evaporated to dryness in a stream of nitrogen and the mass of dry extract was weighed.
[2] = Partition of lithium between water and chloroform/methanol (experiment A), lithium determined by flame photometry; assay type: physicochemical; details: 50 ml distilled water shaken with 250 ml chloroform/methanol (2/l by volume); range of five repeats
Procedure: Each 50 ml water contained 11.4 mg lithium.

[3] = 1 g in 10 ml chloroform/methanol (2/l by volume) shaken with 50 ml distilled water, range of five repeats
[4] = fatty acid salt, taken as equivalent to the percentage of lithium (experiment A)

Structure (SMILES) | Percentage of total fatty acid/ fatty acid salt* in: Aqueous phase [1, 3] | Percentage of total fatty acid/ fatty acid salt* in: Chloroform/methanol phase [1, 3] | Percentage of total lithium in: Chloroform/methanol phase [2] | Percentage of total lithium in: Aqueous phase [2] | Percentage of total fatty acid/ fatty acid salt* in: Aqueous phase [1, 4] | Percentage of total fatty acid/ fatty acid salt* in: Chloroform/methanol phase [1, 4] | solubility (physchem; alcohol, organic solvent or mixture) | solubility (physchem; water)
CCCCC/C=C\C/C=C\C/C=C\CCCCC(=O)O [Gamma-linolenic acid, reference compound] | 2-9% | 91-98% | – | – | – | – | – | –
[Cl-].[Li+] [Lithium chloride, reference compound] | – | – | 1-5% | – | – | – | – | –
CCCCC/C=C\C/C=C\C/C=C\CCCCC(=O)[O-].[Li+] [Lithium gammalinolenate, Lithium gamma-linolenate] | – | – | 83-89% | 11-17% | 11-17% | 83-89% | > 30 mg/mL | > 30 mg/mL
